Measurements published in paper PMC12621189, “Optimization of Selective and CNS Penetrant Alkyne-Based TREK Inhibitors: The Discovery and Characterization of ONO-9517601 (VU6022856) and ONO-7927846 (VU6024391)” (Journal of Medicinal Chemistry, 2025).

Tests used:
[1] = Liver microsome intrinsic clearance, human; format: in vitro ADME; settings: for CLint scaled at 1 µM: pH 7.4, human liver microsomes, predicted intrinsic clearance, read-out: LMS CLINT human; for Predicted CLhep human: from microsomal CLint
Summary of the method: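 Incubation in 100 mM potassium phosphate pH 7.4 with 3 mM MgCl2 at 37 °C, started with 1 mM NADPH after 5 min preincubation; sampled 0–45 min, quenched in acetonitrile, LC/MS/MS. Half-life from ln % remaining vs time; CLint scaled with 20 (human) or 45 (rat) factors, CLhep using Qh 21 (human) or 70 (rat) mL/min/kg.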

[2] = Rat in vivo PK (plasma clearance) in SAR tables; settings: read-out: Rat CLp
[3] = Liver microsome intrinsic clearance, mouse; format: in vitro ADME; settings: mouse liver microsomes, predicted intrinsic clearance, read-out: LMS CLINT mouse
hTREK-1 = biological target: T1, hTREK-1 (Homo sapiens, UniProt O95069); test: hTREK-1 manual patch clamp assay; format: cell-based; settings: human TREK-1, manual patch clamp; read-out: TREK-1 IC50 (human, MPC)
T1 construct: expressed in transfected cells
T1 sequence (O95069 1-426): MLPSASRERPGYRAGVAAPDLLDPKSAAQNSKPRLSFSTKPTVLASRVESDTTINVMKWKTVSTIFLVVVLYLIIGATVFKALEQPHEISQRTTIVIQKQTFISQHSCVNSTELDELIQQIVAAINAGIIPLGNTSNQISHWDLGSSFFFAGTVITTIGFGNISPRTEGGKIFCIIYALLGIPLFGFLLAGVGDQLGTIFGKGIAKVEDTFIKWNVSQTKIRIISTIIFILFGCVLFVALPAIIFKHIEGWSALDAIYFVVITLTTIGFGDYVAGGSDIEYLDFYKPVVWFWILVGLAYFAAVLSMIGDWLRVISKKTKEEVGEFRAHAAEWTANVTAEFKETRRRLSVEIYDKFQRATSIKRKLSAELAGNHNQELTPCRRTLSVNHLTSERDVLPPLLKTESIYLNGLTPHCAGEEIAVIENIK
Procedure: hTREK-1 and mTREK-1 patch clamp assay
CHO-K1 cells stably expressing hTREK-1 or CHO-K1 cells transiently expressing mouse TREK-1 (mTREK-1) were plated on glass coverslips, and voltage clamped in the whole-cell configuration of the patch clamp technique. Cells were voltage clamped at a holding potential of - 80 mV and the stepped to 0 mV for 500 msec. The voltage was subsequently ramped from -120mV to +80 mV over a 500 msec duration. This step-ramp protocol was repeated every 10 sec. The bathing solution contained the following: 135 mM NaCl, 5 mM KCl, 2 mM CaCl2, 1 mM MgCl2, 5 mM D-Glucose, 10 mM HEPES, 10 mM sucrose (adjusted to pH 7.4 with NaOH, 300 mosmol/kg H2O). The pipette solution contained the following: 135 mM KCl, 2 mM MgCl2, 1 mM EGTA, 10 mM HEPES, 2 mM Na2ATP (adjusted to pH 7.35 with KOH, 285 mosmol/kg H2O). Test […]
compounds were dissolved into the bathing solution. The effects of test compound on the currents were calculated at 0 mV using the following equations:
% inhibition = (1-post current/pre current) x 100
% inhibition vs compound concentrations were plotted in GraphPad Prism and calculated IC50. […]

ChromatoLogD = format: physicochemical
[4] = Liver microsome intrinsic clearance, rat; format: in vitro ADME; settings: for CLint scaled at 1 µM: pH 7.4, rat liver microsomes, predicted intrinsic clearance, read-out: LMS CLINT rat; for Predicted CLhep rat: from microsomal CLint
Procedure: were incubated in 100 mM potassium phosphate pH 7.4 buffer with 3 mM MgCl2 at 37 °C with constant shaking. After a 5 min preincubation, the reaction was initiated by the addition of NADPH (1 mM). At selected time intervals (0, 3, 7, 15, 25, and 45 min), aliquots were taken and subsequently placed into a 96-well plate containing cold acetonitrile with internal standard (50 ng/mL carbamazepine). Plates were then centrifuged at 3000 rcf (4 °C) for 10 min, and the supernatant was transferred to a separate 96-well plate and diluted 1:1 with water for LC/MS/MS analysis. The in vitro half-life ( 1/2, min, Eq. 1), intrinsic clearance (CLint, mL/min/kg, Eq. 2), and subsequent predicted hepatic clearance (CLhep, mL/min/kg, Eq. 3) was determined employing the […]
where k represents the slope from linear regression analysis of the natural log percent remaining of a test compound as a function of incubation time […]
(2) CLint = in vitroT x mg microsomes x gram liver x kg body wt ascale-up factors: of 20 (human) or 45 (rat) […]
where Qh (hepatic blood flow, mL/min/kg) is 21 (human) or 70 (rat).
LC/MS/MS Bioanalysis of Samples from Plasma Protein Binding and Intrinsic Clearance […]
Samples were analyzed on a Thermo Electron TSQ Quantum Ultra triple quad mass spectrometer (San Jose, CA) via electrospray ionization (ESI) with two Themo Electron Accella pumps (San Jose, CA), and a Leap Technologies CTC PAL autosampler (Carrboro, NC). Analytes were […]

[5] = Plasma protein binding, rat; format: in vitro ADME; settings: bound; for fraction unbound at 6 h, 5 µM: rat, plasma, pH 7.4, rat plasma, read-out: PPB rat (converted)
Procedure: Plasma protein binding and Brain homogenate binding: Determination of fraction unbound (f u) in plasma was conducted in vitro via equilibrium dialysis using HTDialysis (HTD) membrane plates. The top half of the plate was filled with 100 uL of Dubelco’s Phosphate Buffered Saline, pH 7.4 (DPBS). Compounds were diluted into plasma from each species (5 µM final concentration), which was aliquoted in triplicate to the ‘bottom half’ of the prepared HTD plate wells. The HTD plate was sealed and incubated for 6 hours at 37 °C. Following incubation, each well (both top and bottom halves) were transferred (20 µL) to the corresponding wells of a 96-shallow-well (V-bottom) plate. The daughter plates were then matrix-matched (DPBS side wells received equal volume of plasma, and plasma side wells received equal volume of DPBS), and extraction solution (120 µL; acetonitrile containing 50 nM carbamazepine as IS) was added to all wells of both daughter plates to precipitate protein and extract test article. The plates were then sealed and centrifuged (3500 rcf) for 10 minutes at ambient temperature. Supernatant (60 µL) from each well of the daughter plates was then transferred to the corresponding wells of new daughter plates (96-shallow-well, V bottom) containing water (Milli-Q, 60 µL/well), and the plates were sealed in preparation for LC-MS/MS analysis (see LC-MS/MS analysis method below).
The unbound fraction (f u) was calculated following the equation below, and mean values for each species were calculated from 3 replicates. […]
Fraction unbound for both plasma and brain samples was determined using Equation 4.
Equation 4 Determination of fraction unbound in plasma. […]

clearance [2] | CLint scaled at 1 µM ([3]; pH 7.4) | PPB rat ([5]; rat plasma) | SMILES | CLint scaled at 1 µM [1] | IC50 (hTREK-1) | chromatographic logD (ChromatoLogD) | Predicted CLhep human [1] | CLint scaled at 1 µM [4] | Predicted CLhep rat [4] | CLint scaled [3] | fraction unbound at 6 h, 5 µM [5]
9.43 mL/min/kg | 88 mL/min/kg |  | Cc1cc(C#Cc2ccccc2)cnc1NC(=O)c1cc(OC[C@@H]2COCCO2)ccc1Cl [Compound 7, (S)-5-((1,4-Dioxan-2-yl)methoxy)-2-chloro-N-(3-methyl-5-(phenylethynyl)pyridin-2-yl)benzamide] | 57 mL/min/kg | 79 nM | 4.14 |  |  |  |  | 
 |  |  | CC(=O)N1CC[C@@H](n2ncc(Cl)c2C(=O)Nc2ncc(C#Cc3ccc(F)cc3)cc2C)[C@H](F)C1 [Compound 11, 1-((3R,4R)-1-Acetyl-3-fluoropiperidin-4-yl)-4-chloro-N-(5-((4-fluorophenyl)ethynyl)-3-methylpyridin-2-yl)-1H-pyrazole-5-carboxamide] | 10 mL/min/kg | 64 nM | 3.9 | 7.0 mL/min/kg | 40 mL/min/kg | 25.4 mL/min/kg | 134 mL/min/kg | 0.083
8.9 mL/min/kg |  | 98.1% | Cc1cc(C#Cc2ccccc2)cnc1NC(=O)c1c(Cl)cnn1[C@H]1CCOC1 [Compound 15a, (S)-4-Chloro-N-(3-methyl-5-(phenylethynyl)pyridin-2-yl)-1-(tetrahydrofuran-3-yl)-1H-pyrazole-5-carboxamide] | 4 mL/min/kg |  |  |  | 49 mL/min/kg |  |  | ~0.02

SMILES | clearance [2] | CLint scaled at 1 µM ([3]; pH 7.4) | PPB rat ([5]; rat plasma) | CLint scaled at 1 µM [1] | IC50 (hTREK-1) | chromatographic logD (ChromatoLogD) | Predicted CLhep human [1] | CLint scaled at 1 µM [4] | Predicted CLhep rat [4] | CLint scaled [3] | fraction unbound at 6 h, 5 µM [5]
CC(=O)N1CCC(n2ncc(Cl)c2C(=O)Nc2ncc(C#Cc3ccccc3)cc2C)CC1 [Compound 10, 1-(1-Acetylpiperidin-4-yl)-4-chloro-N-(3-methyl-5-(phenylethynyl)pyridin-2-yl)-1H-pyrazole-5-carboxamide] | 27.7 mL/min/kg |  |  | 6 mL/min/kg | 63 nM | 3.8 | 4.9 mL/min/kg | 62 mL/min/kg | 32.9 mL/min/kg | 8 mL/min/kg | 0.013
